Laboratory results taken from US9492554B2, “Methods and compositions related to viral inhibition” (Clemson University Research Foundation (CURF), priority 2009, dated 2016).

What was measured:
[1] = tested on: TAR RNA; test: UV melting of TAR RNA in presence of ligands (Tm, ΔTm); format: binding, HIV-1; details: for ΔTm: Melting point stabilization of HIV-TAR RNA by Neo Neo dimers, Table 11
Description: The reactions were done in the presence of 10 mM sodium cacodylate, 0.5 mM EDTA, 0.1 mM MgCl2 pH 7.0. The heating rate was 0.3° C./min.
UV melting studies of TAR were performed in the presence and absence of various ligands (FIG. 13).

[2] = target: HIV-1 TAR RNA; test: HIV-1 TAR RNA competition FRET binding assay (Tat peptide probe); details: 100 nM TAR RNA, 100 nM Tat peptide, 25° C., 60 min
Description: Before used, HIV-1 TAR RNA (5′-GGC AGA UCUGAG CCU GGG AGC UCU CUG CC-3′, Thermo Scientific) in 10 μM batch in sterile water was heated to 95° C. for 4.5 min, and then cooled rapidly in ice bath for 5 min. This snap-cooling causes the RNA to adopt the kinetically favored hairpin rather than thermodynamically favored duplexes.
The relative affinity of each polyamine for HIV-1 TAR RNA was determined using Fluorescence Resonance Energy Transfer (FRET)-based competitive binding assay with a fluorescein-labeled HIV-1 Tat peptide as described in the literature. The fluorescence experiments were performed with a Spectra Max Fluorimeter (Molecular Devices) at 25° C., with excitation and emission wavelengths of 495 and 570 nm, respectively. All samples were prepared in 96 well plates in 1×TK buffer (50 mM Tris, 20 mM KCl, pH=7.4) with 0.1% Trixton-100 (Sigma).
To a solution of 100 nM HIV-1 TAR RNA and 100 nM fluorescein-labeled HIV-1 Tat peptide, appropriate concentrations (0 nM to 100 μM) of the antagonists were added at 25° C.; total volume of the incubation solution was 80 μL. After 60 min, fluorescence changes of the sample solution were determined by the Spectra Max Fluorimeter Detector.

[3] = tested on: HIVNL4-3 in MT-2 cells; test: Release of reverse transcriptase into the culture supernatant; format: cell-based, HIV; details: for Release of reverse transcriptase into the culture supernatant, Day 2: mean of triplicate infections (SD), microM: DPA119 24, DPA52 25, DPA53 9, DPA54 17, DPA55 4, DPA56 8, DPA121 25, virus control 46,029; for Release of reverse transcriptase into the culture supernatant, Day 4 / Release of reverse transcriptase into the culture supernatant, Day 6: mean of triplicate infections; for Release of reverse transcriptase into the culture supernatant, Day 4: virus control 928,112; for Release of reverse transcriptase into the culture supernatant, Day 6: virus control 1,078,741
Text: The disclosed conjugates also reduce the amount of reverse transcriptase (RT) released into the cell culture supernatant upon in vitro cell culture experiments (Table 14 below). […] It is possible that even though the cells are positive for HIV, they are making much fewer unspliced transcripts, and thus the virion release into the media remains suppressed. […] Anti-HIV activities can be routinely checked by measuring the percentage of cells positive for HIV antigens using immunofluorescence assay (IFA) and for the release of pelletable reverse transcriptase (RT) into the supernatant. For these assays, 500,000 MT-2 cells in 1 ml of media were added to the wells of a 24 well tissue culture plate. Next, 0.5 ml of 4× concentrated compound was added to triplicate wells of the plate. The cells and compounds were incubated for 1 hr at 37 C. Finally, 0.5 ml of HIVNL4-3, produced in H9 cells (a CD4+ lymphoblastoid cell line), 100,000 cpm of RT activity per well, was added to each well. Virus control wells contained no compounds. This inoculum is at a multiplicity of infection less than 1. […] Next, cells were resuspended in the media and 0.5 mls of the total remaining volume was removed for IFA. Cells were combined from their triplicate infections, pelleted, and the enriched cells were air-dried onto glass slides. The dried cells were fixed in acetonemethanol (50:50). After fixing, cells were stained with HIV immunoglobulin, washed in PBS, and counter-stained with FITC-conjugated goat and human IgG. Slides were washed in PBS and the percentage of HIV-positive cells was determined by epifluorescence (Robinson et al. […] The supernatants from each well were precipitated at 4 C overnight in a solution including 30% polyethylene glycol. After precipitation, precipitate was lysed in a solution containing Triton X100, Tris buffer, and DTT. RT activity of each aliquot was determined as incorporation of 3H-dTTP into a poly rA-oligo dT template. After a one hour assay at 37 C, the incorporated dTTP was precipitated onto a ZetaProbe (BioRad) membrane. Slots were excised and placed into liquid scintillation cocktail. After overnight incubation, counts per minute for each sample was determined on a beta counter. Results were calculated as cpm/ml of original culture supernatant (Robinson et al.

[4] = tested on: cells
[5] = tested on: HIVNL4-3 in MT-2 cells; test: HIV antigen synthesis in treated cells, immunofluorescence assay (IFA); format: cell-based; details: for percentage of cells positive for HIV antigens, Day 2: MT-2 cells, microM: DPA119 24, DPA52 25, DPA53 9, DPA54 17, DPA55 4, DPA56 8, DPA121 25, virus control 15%; for percentage of cells positive for HIV antigens, Day 4 / percentage of cells positive for HIV antigens, Day 6: same concentrations, virus control 100%
Description: Anti-HIV activities can be routinely checked by measuring the percentage of cells positive for HIV antigens using immunofluorescence assay (IFA) and for the release of pelletable reverse transcriptase (RT) into the supernatant. For these assays, 500,000 MT-2 cells in 1 ml of media were added to the wells of a 24 well tissue culture plate. Next, 0.5 ml of 4× concentrated compound was added to triplicate wells of the plate. The cells and compounds were incubated for 1 hr at 37 C. Finally, 0.5 ml of HIVNL4-3, produced in H9 cells (a CD4+ lymphoblastoid cell line), 100,000 cpm of RT activity per well, was added to each well. Virus control wells contained no compounds. This inoculum is at a multiplicity of infection less than 1. On days 2, 4, and 6, 0.75 mls of supernatants were removed and placed into individual microfuge tubes for RT assay. Next, cells were resuspended in the media and 0.5 mls of the total remaining volume was removed for IFA. Cells were combined from their triplicate infections, pelleted, and the enriched cells were air-dried onto glass slides. The dried cells were fixed in acetonemethanol (50:50). After fixing, cells were stained with HIV immunoglobulin, washed in PBS, and counter-stained with FITC-conjugated goat and human IgG. Slides were washed in PBS and the percentage of HIV-positive cells was determined by epifluorescence (Robinson et al. J Acquire Immune Defic Syndr 2:33-42, 1989).

Molecule	Release of reverse transcriptase into the culture supernatant, Day 2 [3]	Release of reverse transcriptase into the culture supernatant, Day 4 [3]	Release of reverse transcriptase into the culture supernatant, Day 6 [3]	5% Toxicity microM [4] [µM]	percentage of cells positive for HIV antigens, Day 2 [5]	percentage of cells positive for HIV antigens, Day 4 [5] [%]	percentage of cells positive for HIV antigens, Day 6 [5] [%]	IC50 ([2]; Table 18) [µM]	other results
NCC1O[C@H](OC2C(N)C[C@@H](N)C(O)[C@H]2O[C@@H]2O[C@H](Cn3cc(COCCCCCCCCOCc4cn(C[C@H]5O[C@@H](O[C@H]6C(O[C@H]7OC(CN)C(O)[C@H](O)C7N)C(N)C[C@@H](N)C6O)[C@@H](O)C5O[C@H]5O[C@@H](CN)C(O)C(O)C5N)nn4)nn3)C(O[C@H]3O[C@@H](CN)C(O)C(O)C3N)[C@@H]2O)C(N)[C@@H](O)C1O (stereo partly shown) [DPA 58]									ΔTm [1]: 5.4 °C; IC50 ([2]; Table 17): 0.061 ± 0.013 µM
NCC1O[C@H](OC2C(N)C[C@@H](N)C(O)[C@H]2O[C@@H]2O[C@H](Cn3cc(CCCc4cn(C[C@H]5O[C@@H](O[C@H]6C(O[C@H]7OC(CN)C(O)[C@H](O)C7N)C(N)C[C@@H](N)C6O)[C@@H](O)C5O[C@H]5O[C@@H](CN)C(O)C(O)C5N)nn4)nn3)C(O[C@H]3O[C@@H](CN)C(O)C(O)C3N)[C@@H]2O)C(N)[C@@H](O)C1O (stereo partly shown) [DPA 52]	21,485 (4,574) cpm/ml	347,845 cpm/ml	268,357 cpm/ml	>138	15%	100	100		
NC[C@@H]1O[C@H](O[C@H]2[C@@H](O)[C@H](O[C@@H]3[C@@H](O)[C@H](N)C[C@H](N)[C@H]3O[C@H]3O[C@H](CO)[C@@H](O)[C@H](O)[C@H]3N)O[C@@H]2CO)[C@H](N)[C@@H](O)[C@@H]1O [DPA 502, paromomycin, reference compound]								11.4 ± 3.3	
NCC1O[C@H](OC2C(N)C[C@@H](N)C(O)[C@H]2O[C@@H]2O[C@H](Cn3cc(CCCCCCc4cn(C[C@H]5O[C@@H](O[C@H]6C(O[C@H]7OC(CN)C(O)[C@H](O)C7N)C(N)C[C@@H](N)C6O)[C@@H](O)C5O[C@H]5O[C@@H](CN)C(O)C(O)C5N)nn4)nn3)C(O[C@H]3O[C@@H](CN)C(O)C(O)C3N)[C@@H]2O)C(N)[C@@H](O)C1O (stereo partly shown) [DPA 56]	15,989 (2,523) cpm/ml	105,704 cpm/ml	412,475 cpm/ml	34	5-7%	40	100		
NCC1O[C@H](OC2C(N)C[C@@H](N)C(O)[C@H]2O[C@@H]2O[C@H](Cn3cc(COCCCCCCCCCCCCOCc4cn(C[C@H]5O[C@@H](O[C@H]6C(O[C@H]7OC(CN)C(O)[C@H](O)C7N)C(N)C[C@@H](N)C6O)[C@@H](O)C5O[C@H]5O[C@@H](CN)C(O)C(O)C5N)nn4)nn3)C(O[C@H]3O[C@@H](CN)C(O)C(O)C3N)[C@@H]2O)C(N)[C@@H](O)C1O (stereo partly shown) [DPA 60]									ΔTm [1]: 3.24 °C; IC50 ([2]; Table 17): 0.067 ± 0.009 µM
NC[C@H]1O[C@H](O[C@H]2[C@H](O)[C@@H](O[C@H]3O[C@H](CO)[C@@H](O)[C@H](N)[C@H]3O)[C@H](N)C[C@@H]2N)[C@H](O)[C@@H](O)[C@@H]1O [DPA 503, kanamycin, reference compound]								95.4 ± 20.4	
ribostamycin [DPA 508, reference compound]								146 ± 38	
lividomycin [DPA 507, reference compound]								92.5 ± 21.9	
CN[C@@H]1C[C@H](N)[C@@H](O)[C@H](OC2O[C@H](CO)[C@H](O)[C@@H]3OC4(O[C@H](C(N)CO)[C@H](O)[C@H](O)[C@H]4O)O[C@@H]23)[C@H]1O (stereo partly shown) [DPA 504, hygromycin, reference compound]								> 500	
NCC1O[C@H](OC2C(N)C[C@@H](N)C(O)[C@H]2O[C@@H]2O[C@H](Cn3cc(-c4ccc(-c5cn(C[C@H]6O[C@@H](O[C@H]7C(O[C@H]8OC(CN)C(O)[C@H](O)C8N)C(N)C[C@@H](N)C7O)[C@@H](O)C6O[C@H]6O[C@@H](CN)C(O)C(O)C6N)nn5)cc4)nn3)C(O[C@H]3O[C@@H](CN)C(O)C(O)C3N)[C@@H]2O)C(N)[C@@H](O)C1O (stereo partly shown) [DPA 53]	8,880 (1,373) cpm/ml	45,539 cpm/ml	221,445 cpm/ml	17	2%	40	100		
CN1CCN(c2ccc3nc(-c4ccc(OCc5cn(CCCCCCn6cc(CCCCc7cn(C[C@H]8OC(OC9C(O)[C@H](N)CC(N)[C@H]9O[C@H]9OC(CN)[C@@H](O)C(O)C9N)C(O)C8O[C@H]8OC(CN)[C@@H](O)C(O)C8N)nn7)nn6)nn5)cc4)[nH]c3c2)CC1 (stereo partly shown) [DPA115]									ΔTm (° C.) ([1]; TAR RNA with ligand vs control, Table 10): 4.1 °C; Tm (° C.) ([1]; TAR RNA with ligand, control without ligand 69.3): 73.4 °C; IC50 ([2]; Table 17): 99.4 ± 21 µM
NCC1O[C@H](OC2C(N)C[C@@H](N)C(O)[C@H]2O[C@@H]2O[C@H](Cn3cc(CCCCc4cn(C[C@H]5O[C@@H](O[C@H]6C(O[C@H]7OC(CN)C(O)[C@H](O)C7N)C(N)C[C@@H](N)C6O)[C@@H](O)C5O[C@H]5O[C@@H](CN)C(O)C(O)C5N)nn4)nn3)C(O[C@H]3O[C@@H](CN)C(O)C(O)C3N)[C@@H]2O)C(N)[C@@H](O)C1O (stereo partly shown) [DPA 54]	14,805 (1,309) cpm/ml	165,301 cpm/ml	427,475 cpm/ml	69	3-5%	80	100		
